# Laboratory results as given in the METLIN SMRT retention time set (Domingo-Almenara et al. 2019).
# Assay: gradient 5% acetonitrile 3 min, to 50% in 2 min, to 85% in 15 min, held 3 min, 100 µL/min
# Details: column: Zorbax Extend-C18 2.1 x 50 mm; eluents: water / acetonitrile, 0.1% formic acid
# Method in brief: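 Pure standards were analyzed in mixtures of ~100 molecules using HPLC coupled to a quadrupole time-of-flight mass spectrometer, in both positive and negative ionization mode. Separation used a Zorbax Extend-C18 column (2.1 × 50 mm, 1.8 μm) at 100 μL/min, with water and acetonitrile each containing 0.1% formic acid. Dead and dwell volumes were 40 μL and 900 μL, and data were collected over 3 months. Retention time was read from computationally picked adduct peaks, each inspected manually.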
row,RP-LC retention time [s],SMILES
1,1150,COc1ccccc1-c1nnc(-c2ccc(C)c(S(=O)(=O)N3CCC(C)CC3)c2)o1
2,959,O=C(Cn1nc2c3cc(-c4ccc(F)cc4)nn3ccn2c1=O)Nc1ccc(F)cc1Cl
3,1270,COc1ccc(-c2nc3n(n2)C2(CCCCC2)[C@@H]2CCCC[C@@H]2N3C(=O)c2cccs2)cc1
4,1020,CC(C)Cn1cc(S(=O)(=O)NCc2cccc(Cl)c2)c2cccnc21
5,718,COc1ccc(C(=O)N2CCCCC2c2nncn2CC2CC2)cc1F (stereo not drawn)
6,799,COCc1nnc(C(=O)Nc2cccc(C(=O)NCCc3c[nH]c4ccc(OC)cc34)c2)s1
7,560,COC(=O)c1ccc(CN2CCC(c3nnc(C(F)(F)F)o3)CC2)o1
8,1050,Cc1ccccc1C(=O)Nc1nc(-c2ccc3c(c2)N(C)C(=O)CO3)c(C)s1
9,712,O=C(CCNc1c(-c2cccc(F)c2)nc2cnccn12)NCc1ccc2c(c1)OCO2
10,786,CNC(=O)c1n[nH]c2c1CC(C(C)(C)C)CC2 (stereo not drawn)
11,771,COc1ccc(NC(=O)c2cnc3c(c2)c(=O)n(C)c(=O)n3-c2ccccc2)cc1OC
12,612,COc1ccc(-c2c(C)noc2NC(C)=O)cc1S(=O)(=O)N1CCN(c2ccccn2)CC1
13,689,O=C(NC1CC1)c1cccc(OCC2CCCN(C(=O)C3CCCO3)C2)c1 (stereo not drawn)
14,1020,COc1ccc(N2C(=O)C3N=NN(Cc4nc(-c5ccc(Br)cc5)no4)C3C2=O)cc1 (stereo not drawn)
15,656,CC(C)c1noc(C2CCCN(S(C)(=O)=O)CCC(=O)NCC2)n1 (stereo not drawn)
16,684,O=C(Cn1cnc(-c2ccc(F)cc2)cc1=O)NCc1ccco1
17,842,Cn1nc(-c2nc(C3CC3)no2)c2c1CCN(C(=O)c1cc(F)ccc1Cl)C2
18,743,O=C(NCCc1nc(-c2ccc3c(c2)OCO3)n[nH]1)c1ccc(F)c(Cl)c1
19,762,Cc1cccc(CNC(=O)C2CCCN(C(=O)C3Sc4ccccc4NC3=O)C2)c1 (stereo not drawn)
20,830,Cc1ccc(Nc2c(-c3cccc(Br)c3)nc3ccc(C)cn23)cc1
21,666,CC(C)NC(=O)Cn1ccn2nc(-c3ccccc3)c(CO)c2c1=O
22,901,Cc1ccc(-c2nc3sc(N4CCCCC4)nn3c2NC(=O)C2CCCO2)cc1 (stereo not drawn)

row,RP-LC retention time [s],SMILES
1,605,CCN(CC)CCNC(=O)c1ccc2nc(C(C)C)oc2c1
2,1190,Cc1ccc(NC(=O)Cn2nc(N3CCCCCC3)c3ccccc3c2=O)c(F)c1
3,1030,Cc1cccc(NC(=O)C2CCCN(S(=O)(=O)N3CCC(C)CC3)C2)c1C (stereo not drawn)
4,952,COc1ccc(Cc2cnc(NC(=O)C3COc4ccccc4C3)s2)cc1 (stereo not drawn)
5,926,Cc1nn(-c2ccccc2)c(C)c1S(=O)(=O)N1CCC(C(=O)Nc2ccccc2)CC1
6,875,CSc1ccccc1C(=O)NCC1(c2ccc(F)cc2)CC1
7,1160,O=C(Cn1nc(N2CCCCCC2)c2ccccc2c1=O)Nc1ccc(Cl)cc1
8,1260,CCCN1C(=O)COc2ccc(-c3noc(-c4ccc(Cl)cc4OC)n3)cc21
9,695,CCN(CC)C(=O)c1ccc(-c2nc3cc(NS(=O)(=O)c4ccccc4Cl)ccc3n2C)cc1
10,904,COCCc1noc(C2Cc3ccccc3N2C(=O)NCc2ccc(OC)cc2)n1 (stereo not drawn)
11,786,CC(C)c1ccc(NC(=O)C2(C)CCCCC(=O)N2)cc1 (stereo not drawn)
12,712,COc1ccc(Nc2ncccc2S(N)(=O)=O)cc1
13,734,CN1CCCc2cc(C(CNC(=O)C(=O)NCc3ccc4c(c3)OCO4)N3CCCCC3)ccc21 (stereo not drawn)
14,1050,CCc1cc(-c2csc(S(=O)(=O)NCCc3ccc(Cl)cc3)c2)on1
15,593,COc1ccc(NC(=O)c2cnc(N3CCN(C(=O)c4ccco4)CC3)nc2N)cc1
16,783,COCCNc1c(-c2cccc(F)c2)nc2sc(C(=O)N3CCCC3)c(C)n12
17,862,CS(=O)(=O)c1ccc(NC(=O)Cn2cnc3c(sc4nc(-c5ccccc5)ccc43)c2=O)cc1
18,735,Cc1[nH]c(C(=O)N2CCC(CC(=O)N3CCCC3)CC2)c(C)c1C(=O)OC(C)C
19,769,CCN(CC)C(=O)CC(c1cc(OC)c(OC)c(OC)c1)N1Cc2ccccc2C1=O (stereo not drawn)
20,711,CCN1CCCn2cc(S(=O)(=O)NCc3ccccc3)cc2C1=O
21,688,CCCNC(=O)C1CCCN(c2ccc(SCC(=O)Nc3ccc(OC)c(Cl)c3)nn2)C1 (stereo not drawn)
22,959,O=c1ccc(-c2ccccc2)nn1Cc1nc(-c2ccc3c(c2)OCO3)no1

row,RP-LC retention time [s],SMILES
1,706,CC(C)(C)NC(=O)NCC1CC(=O)N(c2ccc(Cl)cc2)C1 (stereo not drawn)
2,649,c1ccc2c(N3CCCC3)nnc(-c3nc(C4CC4)no3)c2c1
3,656,Cc1nc(C)c(C(=O)N2CCC(C3CCN(S(C)(=O)=O)CC3)C2)s1 (stereo not drawn)
4,596,O=C(Cn1cnc2ccccc2c1=O)NC1CC1
5,696,O=C(OCCc1ccccn1)c1cn(-c2ccccc2)c(=O)c2ccccc12
6,742,O=C1NC2(CCN(C(=O)c3ccc(F)cc3)CC2)Nc2cc(Cl)ccc21
7,675,O=C(COc1ccc(Cl)cc1)N1CC(n2cnnc2C2CC2)C1
8,899,CCc1ccc(NC(=O)Cn2nc3cc(-c4ccccc4)nc(C)n3c2=O)cc1
9,590,COC(=O)C1=C(CN2CCOCC2)NC(=O)NC1c1ccccc1C (stereo not drawn)
10,790,CC(C)CNC(=O)CN1CCN(Cc2ccc(F)cc2Cl)C1=O
11,732,Cc1ccc(C(=O)C2=C(O)C(=O)N(c3ncccn3)C2c2cccc(Cl)c2)o1 (stereo not drawn)
12,812,CCC(=O)N1CCc2cc(CNS(=O)(=O)c3ccc(OC)cc3)ccc21
13,750,COc1ccc(CN2CC3(CCN(S(=O)(=O)c4cccnc4)CC3)C2=O)cc1
14,649,Cc1cc(-c2nnc(-c3ccccc3)o2)c(C)n1CC(=O)N1CCN(c2ccccn2)CC1
15,964,CC(NC(=O)c1ccccc1)c1nc(-c2ccc3c(c2)nnn3C2CCCC2)no1 (stereo not drawn)
16,889,COc1ccccc1C(=O)Nc1nc(-c2ccc3c(c2)NC(=O)CO3)c(C)s1
17,931,O=C(C1CCCN(c2nnc(-n3cccc3)s2)C1)N1CCN(c2ccccc2)CC1 (stereo not drawn)
18,1180,COc1cccc(S(=O)(=O)N2CCC(c3noc(-c4cccc(C)c4)n3)CC2)c1
19,655,O=C(CCc1c(-c2ccc(F)cc2)nc2ccccn12)NCc1ccc2c(c1)OCO2
20,930,COc1ccc(-c2noc(Cn3cnc4c(cnn4-c4ccc(F)cc4)c3=O)n2)cc1OC
21,711,COCCCNC(=O)c1ccc(-n2nc(C)c3c2CC(C)(C)CC3=O)cc1
22,829,O=C(Cn1cc(S(=O)(=O)c2ccccc2)c2ccccc21)NCc1ccc2c(c1)OCO2

row,RP-LC retention time [s],SMILES
1,630,O=C(NC1CCN(c2cc(-c3ccccc3)[nH]n2)C1)c1cccs1 (stereo not drawn)
2,776,O=C(NCc1ccc(F)cc1F)C1CCN(C(=O)c2ncn3c2COC(c2ccc(F)cc2)C3)CC1 (stereo not drawn)
3,1020,O=C(Cn1c(=O)oc2ccccc21)Nc1nc(-c2ccc(Cl)cc2)cs1
4,895,CCc1nc2cc(-c3noc(-c4ccc(C)c(NC(C)=O)c4)n3)ccc2o1
5,881,O=C1CN(S(=O)(=O)c2ccc(F)c(Cl)c2)CC2(CCOCC2)N1CC1CC1
6,748,CCn1nc(CNC(=O)C2CCC2)c2ccccc21
7,619,CCN(Cc1ccc(OC)cc1)Cc1cc(=O)n2ccc(C)cc2n1
8,830,COc1ccccc1NC(=O)N1CCC(n2cnc3c(Cl)cccc3c2=O)CC1
9,822,O=C(NCc1nc(-c2ccccc2)no1)c1cc(C2CC2)on1
10,687,CN1C(=O)c2[nH]nc(-c3ccc(F)cc3)c2C1c1cccc(O)c1 (stereo not drawn)
11,799,Cc1nc(C)c(C(=O)Nc2ccc(F)cc2C)s1
12,678,O=C(Cn1c(CN2CCCCCC2)nc2ccccc21)N1CCCCCC1
13,905,Cc1ccc(NC(=O)Nc2c(Cl)cccc2Cl)cn1
14,724,COc1ccc(C2Cn3cnc(C(=O)N4CCC(C(=O)NCC(C)C)CC4)c3CO2)cc1 (stereo not drawn)
15,885,Cc1cccc(-c2nc3sc(N4CCCCC4)nn3c2NC(=O)c2ccnn2C)c1
16,680,O=C(NCc1ccc(F)cc1)c1cccc(-c2ccc(N3CCCC3)nc2)c1
17,1180,Cc1cccc(S(=O)(=O)N2CCC(c3noc(-c4ccc(F)cc4)n3)CC2)c1
18,995,CCCN1C(=O)c2cc(S(=O)(=O)NCc3ccc(C)o3)ccc2Oc2cccnc21
19,710,CCOc1ccc(NC(=O)c2oc3ccc(F)cc3c2C)c2cccnc12
20,778,CN(C[C@@H]1COCCO1)S(=O)(=O)Nc1ccc2ccc3ncc(-c4cnn(C)c4)cc3c(=O)c2c1
21,764,CC1=C(c2ccc(F)cc2)S(=O)(=O)N=C1N1CCCN(C(=O)c2ccco2)CC1
22,1240,CCCOc1nc2ccccc2nc1N1CCCC(C(=O)NCc2ccccc2C)C1 (stereo not drawn)
